What follows are molecules tested against Human MAT2A (Homo sapiens (Human), UniProt P31153) (assay: Phosphate Sensor Fluorescence Assay (MAT2A enzyme inhibition)). Conditions: MAT2A (1-395) 5.8 nM, 500 uM L-methionine, 500 uM ATP.
Type: biochemical
Procedure: The ability of the compound of present disclosure to inhibit MAT2A enzyme was determined using a Phosphate Sensor Fluorescence Assay described below.
MAT2A enzyme is incubated with a test compound in DMSO or DMSO and its substrates (L-methionine and ATP) in a microtiter plate. The enzymatic reaction is stopped by the addition of Working Phosphate Sensor Mixture. The plate is analyzed for fluorescence at 450 nm. The high control (DMSO with enzyme and its substrates) gives high fluorescence which represents no inhibition of enzymatic activity while the low control (DMSO with MAT2A substrates and no enzyme) gives low fluorescence which represents full inhibition of enzymatic activity.
• Human MAT2A: Cepter, amino acids 1-395 (Clone ID 334, lot 00023-148) • Tris, pH 7.5: Invitrogen cat #15567-027 • KCl: Ambion cat #AM9640G • MgCl2: Ambion cat #AM9530G • Brij-35: Sigma cat B4184-10ML • DTT: Goldbio cat #DTT100 • BGG: Sigma cat #G5009-25G • PNP: Novus Biologicals cat #NBP1-50872 • 7-MEG: Cayman Chemical cat #15988 • L-Methionine: JTBaker P/N 2085-05 • ATP: Promega P/N V915B • Phosphate Sensor: Thermo Fisher cat #PV4407 • EDTA: Invitrogen cat #15575-038 • Assay plate: 384-well black polypropylene plate: Corning P/N 3573
• Assay Buffer: 50 mM Tris, pH 7.5/50 mM KCl/10 mM MgCl2/0.01% Brij-35/1 mM DTT/0.01% BGG/40 nM PNP/6 uM 7-MEG • MAT2A: 5.8 nM MAT2A (1-395), Cepter, clone ID 334, lot 00023-148 before the addition of Working Phosphate Sensor Mixture • L-methionine: 500 uM before the addition of Working Phosphate Sensor Mixture • ATP: 500 uM before the addition of Working Phosphate Sensor Mixture
For the assay, a mixture of 1 mM L-methionine/1 mM ATP (2× final pre-stopped concentration) in assay buffer; MAT2A (2× final pre-stopped concentration) in Assay Buffer and Working Phosphate Sensor Mixture (1.5 uM Phosphate Sensor/30 mM EDTA in Assay Buffer, which is 3× final concentrations) were prepared. Test compounds or DMSO were added to the appropriate well using a Beckman Coulter Echo 550 acoustic liquid handler. 10 μl/well of Assay Buffer was added to the wells corresponding to the negative control and 10 μl/well of MAT2A was added to all the wells except for those corresponding to the negative control. After incubating the plate at room temperature for 15 minutes, 10 μl/well of the 1 mM L-methionine/1 mM ATP mixture was added to all wells. The plate was centrifuged at 1000 rpm for 1 minute and then incubated at room temperature for 1 hour. 10 μl of the Working Phosphate Sensor Mixture was added to all wells and the plate was centrifuged at 1000 rpm for 1 minute. The plate was read for fluorescence at 450 nm after exciting at 430 nm on a Tecan Spark microplate reader.
Percent inhibition was calculated in Chemical and Biological Information System (CBIS), (ChemInnovation Software Inc.). Curves were fitted by CBIS as % inhibition vs. log [compound concentration] using a 4-parameter inhibition model.

Sequence of Human MAT2A (P31153 whole entry): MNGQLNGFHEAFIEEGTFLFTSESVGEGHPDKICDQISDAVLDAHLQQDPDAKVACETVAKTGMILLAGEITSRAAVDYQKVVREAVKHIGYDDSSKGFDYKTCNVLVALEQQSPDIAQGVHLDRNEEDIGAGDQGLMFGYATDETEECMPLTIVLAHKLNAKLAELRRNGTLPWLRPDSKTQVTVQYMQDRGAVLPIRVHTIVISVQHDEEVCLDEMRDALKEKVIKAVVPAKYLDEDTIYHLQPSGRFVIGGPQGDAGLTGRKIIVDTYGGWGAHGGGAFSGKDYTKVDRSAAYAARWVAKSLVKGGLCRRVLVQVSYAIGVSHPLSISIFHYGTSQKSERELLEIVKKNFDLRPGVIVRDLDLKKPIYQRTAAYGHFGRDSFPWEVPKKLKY

Row | IC50 [nM] | SMILES
1 | < 200 | CN(C)c1nc(=O)n(-c2cccc(NC(=O)c3ncc(-n4c(=O)nc(N(C)C)c5ccc(Cl)cc54)n3C)c2)c2cc(Cl)ccc12 [Example 4, 5-(7-Chloro-4-(dimethylamino)-2-oxoquinazolin-1(2H)-yl)-N-(3-(7-chloro-4-(dimethylamino)-2-oxoquinazolin-1(2H)-yl)phenyl)-1-methyl-1H-imidazole-2-carboxamide]
2 | < 200 | O=C(Nc1cccc(-n2c(=O)[nH]c(=O)c3ccc(C(F)(F)F)cc32)c1)c1csc(-n2c(=O)[nH]c(=O)c3ccc(C(F)(F)F)cc32)c1 [Example 5, 5-(2,4-Dioxo-7-(trifluoromethyl)-3,4-dihydroquinazolin-1(2H)-yl)-N-(3-(2,4-dioxo-7-(trifluoromethyl)-3,4-dihydroquinazolin-1(2H)-yl)phenyl)thiophene-3-carboxamide]
3 | < 200 | CN(C)c1nc(=O)n(-c2cccc(NC(=O)c3csc(-n4c(=O)nc(N(C)C)c5ccc(C(F)(F)F)cc54)c3)c2)c2cc(C(F)(F)F)ccc12 [Example 6, 5-(4-(Dimethylamino)-2-oxo-7-(trifluoromethyl)quinazolin-1(2H)-yl)-N-(3-(4-(dimethylamino)-2-oxo-7-(trifluoromethyl)quinazolin-1(2H)-yl)phenyl)thiophene-3-carboxamide]
4 | < 200 | O=C(Nc1cccc(-n2c(=O)[nH]c(=O)c3ccc(Cl)cc32)c1)c1cccc(-n2c(=O)[nH]c(=O)c3ccc(Cl)cc32)c1 [Example 7, 3-(7-Chloro-2,4-dioxo-3,4-dihydroquinazolin-1(2H)-yl)-N-(3-(7-chloro-2,4-dioxo-3,4-dihydroquinazolin-1(2H)-yl)phenyl)benzamide]
5 | < 200 | Cn1c(-n2c(=O)[nH]c(=O)c3ccc(Cl)cc32)cnc1C(=O)Nc1cccc(-n2c(=O)[nH]c(=O)c3ccc(Cl)cc32)c1 [Example 9, 5-(7-Chloro-2,4-dioxo-3,4-dihydroquinazolin-1(2H)-yl)-N-(3-(7-chloro-2,4-dioxo-3,4-dihydroquinazolin-1(2H)-yl)phenyl)-1-methyl-1H-imidazole-2-carboxamide]
6 | < 200 | CN(C)c1nc(=O)n(-c2cccc(NC(=O)c3cc(-n4c(=O)nc(N(C)C)c5ccc(Br)cc54)n(C)n3)c2F)c2cc(Cl)ccc12 [Example 10, 5-(7-Bromo-4-(dimethylamino)-2-oxoquinazolin-1(2H)-yl)-N-(3-(7-chloro-4-(dimethylamino)-2-oxoquinazolin-1(2H)-yl)-2-fluorophenyl)-1-methyl-1H-pyrazole-3-carboxamide]
7 | < 200 | CN(C)c1nc(=O)n(-c2cccc(NCc3csc(-n4c(=O)nc(N(C)C)c5ccc(Cl)cc54)c3)c2)c2cc(Cl)ccc12 [Example 11, 7-Chloro-1-(4-(((3-(7-chloro-4-(dimethylamino)-2-oxoquinazolin-1(2H)-yl)phenyl)amino)methyl)thiophen-2-yl)-4-(dimethylamino)quinazolin-2(1H)-one]

Further lines, the molecule ahead of its results:

Row | SMILES | IC50 [nM]
8 | CN(C)c1nc(=O)n(-c2cccc(NC(=O)c3csc(-n4c(=O)nc(N(C)C)c5ccc(Cl)cc54)c3)c2)c2cc(Cl)ccc12 [Example 1, 5-(7-Chloro-4-(dimethylamino)-2-oxoquinazolin-1(2H)-yl)-N-(3-(7-chloro-4-(dimethylamino)-2-oxoquinazolin-1(2H)-yl)phenyl)thiophene-3-carboxamide] | < 200
9 | O=C(Nc1cccc(-n2c(=O)[nH]c(=O)c3ccc(Cl)cc32)c1)c1csc(-n2c(=O)[nH]c(=O)c3ccc(Cl)cc32)c1 [Example 2, 5-(7-Chloro-2,4-dioxo-3,4-dihydroquinazolin-1(2H)-yl)-N-(3-(7-chloro-2,4-dioxo-3,4-dihydroquinazolin-1(2H)-yl)phenyl)thiophene-3-carboxamide] | < 200
10 | Cc1c(C(=O)Nc2cccc(-n3c(=O)nc(N(C)C)c4ccc(Cl)cc43)c2)csc1-n1c(=O)nc(N(C)C)c2ccc(Cl)cc21 [Example 3, 5-(7-Chloro-4-(dimethylamino)-2-oxoquinazolin-1(2H)-yl)-N-(3-(7-chloro-4-(dimethylamino)-2-oxoquinazolin-1(2H)-yl)phenyl)-4-methylthiophene-3-carboxamide] | < 200
11 | CN(C)c1nc(=O)n(-c2cccc(NC(=O)c3cnc(-n4c(=O)nc(N(C)C)c5ccc(Cl)cc54)s3)c2)c2cc(Cl)ccc12 [Example 8, 2-(7-Chloro-4-(dimethylamino)-2-oxoquinazolin-1(2H)-yl)-N-(3-(7-chloro-4-(dimethylamino)-2-oxoquinazolin-1(2H)-yl)phenyl)thiazole-5-carboxamide] | < 200
12 | CN(C)c1nc(=O)n(-c2cccc(OCc3csc(-n4c(=O)nc(N(C)C)c5ccc(Cl)cc54)c3)c2)c2cc(Cl)ccc12 [Example 12, 7-Chloro-1-(4-((3-(7-chloro-4-(dimethylamino)-2-oxoquinazolin-1(2H)-yl)phenoxy)methyl)thiophen-2-yl)-4-(dimethylamino)quinazolin-2(1H)-one] | < 200
